In paper PMC7933930, “Development of a small molecule that corrects misfolding and increases secretion of Z α1‐antitrypsin” (EMBO Molecular Medicine, 2021):

Columns and labels:
[1] = target: Aryl hydrocarbon receptor (Homo sapiens, UniProt P35869); test: Off‐target panel: Aryl hydrocarbon receptor; assay type: cell-based; conditions: Activator, read-out: Mean (PXC50)
Procedure: (§1) GSK716 selectivity and PK properties were profiled in order to investigate the suitability of GSK716 for progression into in vivo studies and the potential for taking it forward as a clinical candidate for testing in humans. Since GSK716 results in loss of inhibitory activity of α1‐antitrypsin, the effect of the compound was assessed on other closely related serpins. […] Furthermore, there were no off‐target effects in a panel of assays considered predictive of known safety liabilities that precluded further development of GSK716 (Table EV1).

[2] = tested on: GABA-A; test: Off‐target panel: GABA-A (Barracuda); assay type: cell-based
Procedure: as §1

[3] = tested on: CHO‐TET‐ON‐Z‐A1AT cells; test: Tunicamycin sensitivity, cell viability (Cell Counting Kit‐8), cells expressing Z α1‐antitrypsin; assay type: cell-based; conditions: 10 μM GSK716, cells expressing Z α1‐antitrypsin, tunicamycin 36 h
Procedure: (§2) Figure 2 GSK716 inhibits polymerisation of Z α1‐antitrypsin in cell models of disease • A GSK716 was added to CHO‐TET‐ON‐Z‐A1AT cells (Ordóñez et al, 2013) with simultaneous induction of Z α1‐antitrypsin expression using doxycycline, and polymer load was quantified with the 2C1 monoclonal antibody that is specific to pathological polymers of α1‐antitrypsin (Miranda et al, 2010). […] Data were normalised to vehicle and a control compound from the GSK716 series at saturating concentration. […] It induced an approximately threefold increase in secreted levels of Z α1‐antitrypsin compared with vehicle control. This was apparent even after polymers had been allowed to form. Scale bar: 100 µm. Data presented as mean ± SD, n = 8 (secretion) and n = 6 (polymer inhibition). • E CHO tetracycline‐inducible cells expressing Z α1‐antitrypsin were induced with 0.5 μg/ml doxycycline for 48 h and treated with 10 μM GSK716. […] For every time point, NP‐40‐soluble and NP‐40‐insoluble fractions were separated and immunoprecipitated with the 2C1 mAb and resolved by 4–12% w/v SDS–PAGE and α1‐antitrypsin detected by immunoblotting. […] Cell viability was measured by Cell Counting Kit‐8. […] Samples were resolved by 4–12% w/v acrylamide SDS–PAGE and detected by autoradiography. • H The graphs show the effect of GSK716 on intracellular and extracellular Z α1‐antitrypsin (mean ± SEM, n = 2). […]

[4] = target: PDE3A (Homo sapiens, UniProt Q14432); test: Off‐target panel: PDE3A; assay type: biochemical; conditions: Inhibition, read-out: Mean (PXC50)
Procedure: as §1

[5] = tested on: Z α1‐antitrypsin polymers in CHO cells; test: Soluble and insoluble polymers in CHO cells expressing Z α1‐antitrypsin (NP‐40 fractions, 2C1 immunoprecipitation, immunoblot); assay type: cell-based; conditions: pre‐treatment 48 h with 10 μM GSK716, CHO cells induced with doxycycline
Procedure: as §2

[6] = target: Dopamine D1 (Homo sapiens, UniProt P21728); test: Off‐target panel: Dopamine D1; assay type: cell-based
Procedure: as §1

[7] = target: α1‐antichymotrypsin (Homo sapiens, UniProt P01011); test: Inhibitory activity of α1‐antichymotrypsin against chymotrypsin; assay type: biochemical
Procedure: Figure 5 The effect of GSK716 on serpin inhibitory activity • α1‐Antitrypsin was incubated at varying molar ratios with the model protease bovine α‐chymotrypsin, and the residual protease activity determined. The intercept of the regression with the abscissa reflects the number of molecules of α1‐antitrypsin required to inhibit one molecule of chymotrypsin in the presence (+c) and absence (−c) of 50µM GSK716. Error bars reflect ± SEM of three independent experiments. • M α1‐antitrypsin was incubated with different molar ratios of chymotrypsin and resolved by SDS–PAGE. The position of covalent α1‐antitrypsin‐chymotrypsin complex (cpx), native (nat) and cleaved (clv) is shown. • The inhibitory activity of α1‐antichymotrypsin against chymotrypsin (ach + chym), neuroserpin against trypsin (neus + tryp), and antithrombin against thrombin (atiii + thrombin) was determined in the presence and absence of GSK716. Error bars reflect ± SD of two independent experiments.
GSK716 selectivity and PK properties were profiled in order to investigate the suitability of GSK716 for progression into in vivo studies and the potential for taking it forward as a clinical candidate for testing in humans. Since GSK716 results in loss of inhibitory activity of α1‐antitrypsin, the effect of the compound was assessed on other closely related serpins. […]

Sequence of Aryl hydrocarbon receptor (P35869 11-848, species assumed): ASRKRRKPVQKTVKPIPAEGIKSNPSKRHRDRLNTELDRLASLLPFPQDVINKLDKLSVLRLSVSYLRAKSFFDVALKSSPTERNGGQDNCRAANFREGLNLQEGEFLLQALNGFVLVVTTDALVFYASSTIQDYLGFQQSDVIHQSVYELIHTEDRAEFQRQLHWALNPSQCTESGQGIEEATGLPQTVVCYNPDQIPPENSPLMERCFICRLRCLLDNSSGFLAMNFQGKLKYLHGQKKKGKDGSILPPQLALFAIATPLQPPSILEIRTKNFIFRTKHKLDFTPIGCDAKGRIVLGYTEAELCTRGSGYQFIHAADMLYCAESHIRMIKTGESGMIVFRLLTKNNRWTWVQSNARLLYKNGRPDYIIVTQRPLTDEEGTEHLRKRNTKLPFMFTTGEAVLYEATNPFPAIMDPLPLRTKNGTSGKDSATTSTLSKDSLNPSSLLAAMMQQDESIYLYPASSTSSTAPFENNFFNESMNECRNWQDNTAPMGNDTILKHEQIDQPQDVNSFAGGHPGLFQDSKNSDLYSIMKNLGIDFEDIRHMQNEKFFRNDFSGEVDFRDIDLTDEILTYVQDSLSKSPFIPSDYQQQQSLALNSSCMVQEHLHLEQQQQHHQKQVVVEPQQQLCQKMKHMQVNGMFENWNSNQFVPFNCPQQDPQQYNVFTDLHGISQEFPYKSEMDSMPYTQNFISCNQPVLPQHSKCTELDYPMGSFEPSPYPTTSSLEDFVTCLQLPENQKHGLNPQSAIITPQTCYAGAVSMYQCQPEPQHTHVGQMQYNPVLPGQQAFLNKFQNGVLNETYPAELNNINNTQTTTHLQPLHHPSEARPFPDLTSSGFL
Sequence of α1‐antichymotrypsin (P01011 24-423, species assumed): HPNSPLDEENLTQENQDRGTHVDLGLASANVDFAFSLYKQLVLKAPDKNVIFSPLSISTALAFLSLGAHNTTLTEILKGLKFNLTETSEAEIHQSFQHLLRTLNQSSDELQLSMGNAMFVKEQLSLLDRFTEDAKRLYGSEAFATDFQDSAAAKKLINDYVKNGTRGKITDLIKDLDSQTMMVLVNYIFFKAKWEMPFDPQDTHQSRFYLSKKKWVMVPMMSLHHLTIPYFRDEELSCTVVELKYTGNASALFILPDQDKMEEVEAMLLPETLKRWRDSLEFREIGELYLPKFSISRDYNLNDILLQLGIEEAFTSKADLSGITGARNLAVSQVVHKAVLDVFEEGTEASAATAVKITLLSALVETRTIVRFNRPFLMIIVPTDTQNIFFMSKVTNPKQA
Sequence of PDE3A (Q14432 whole entry, species assumed): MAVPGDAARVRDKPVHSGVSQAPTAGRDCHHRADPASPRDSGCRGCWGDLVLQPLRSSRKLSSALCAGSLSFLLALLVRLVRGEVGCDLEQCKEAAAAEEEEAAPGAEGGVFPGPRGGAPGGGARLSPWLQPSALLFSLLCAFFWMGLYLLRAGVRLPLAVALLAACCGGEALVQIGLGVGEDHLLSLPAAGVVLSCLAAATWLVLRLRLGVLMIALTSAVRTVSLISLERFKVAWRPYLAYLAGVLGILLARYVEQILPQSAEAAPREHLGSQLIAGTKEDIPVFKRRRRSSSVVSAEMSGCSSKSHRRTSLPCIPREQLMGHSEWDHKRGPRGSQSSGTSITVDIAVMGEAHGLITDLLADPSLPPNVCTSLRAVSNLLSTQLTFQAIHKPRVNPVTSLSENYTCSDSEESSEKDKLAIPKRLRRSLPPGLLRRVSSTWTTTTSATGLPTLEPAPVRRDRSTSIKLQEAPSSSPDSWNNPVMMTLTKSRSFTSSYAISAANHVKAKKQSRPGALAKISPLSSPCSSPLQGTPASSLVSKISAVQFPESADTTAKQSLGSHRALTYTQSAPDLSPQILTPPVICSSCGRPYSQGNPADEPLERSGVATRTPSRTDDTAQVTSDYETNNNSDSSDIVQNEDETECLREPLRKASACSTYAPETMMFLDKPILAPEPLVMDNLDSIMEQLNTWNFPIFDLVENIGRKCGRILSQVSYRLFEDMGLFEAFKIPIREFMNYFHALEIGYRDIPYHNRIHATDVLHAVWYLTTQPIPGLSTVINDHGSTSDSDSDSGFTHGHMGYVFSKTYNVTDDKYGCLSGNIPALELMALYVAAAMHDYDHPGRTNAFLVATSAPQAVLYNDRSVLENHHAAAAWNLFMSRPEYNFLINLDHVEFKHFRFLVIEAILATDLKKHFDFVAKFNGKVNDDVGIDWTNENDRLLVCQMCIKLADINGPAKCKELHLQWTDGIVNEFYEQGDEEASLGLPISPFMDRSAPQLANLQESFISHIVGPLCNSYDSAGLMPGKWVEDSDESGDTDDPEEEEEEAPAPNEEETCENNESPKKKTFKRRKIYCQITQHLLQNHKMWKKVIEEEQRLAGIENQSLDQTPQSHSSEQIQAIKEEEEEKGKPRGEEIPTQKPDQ
Sequence of Dopamine D1 (P21728 whole entry): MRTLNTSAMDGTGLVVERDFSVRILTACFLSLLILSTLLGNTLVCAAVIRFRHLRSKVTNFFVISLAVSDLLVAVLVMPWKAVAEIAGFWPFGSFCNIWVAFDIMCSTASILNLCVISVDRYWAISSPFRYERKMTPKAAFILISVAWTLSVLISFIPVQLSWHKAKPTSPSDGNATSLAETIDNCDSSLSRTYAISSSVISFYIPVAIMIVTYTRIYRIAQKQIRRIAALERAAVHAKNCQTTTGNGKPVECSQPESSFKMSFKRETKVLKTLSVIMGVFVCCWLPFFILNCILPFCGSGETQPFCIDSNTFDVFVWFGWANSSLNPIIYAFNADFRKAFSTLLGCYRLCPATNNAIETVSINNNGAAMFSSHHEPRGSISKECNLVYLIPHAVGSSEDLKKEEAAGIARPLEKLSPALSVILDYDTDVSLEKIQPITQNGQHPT

## CCC[C@@H](NC(=O)c1cccc2c1CC(=O)N2)[C@@H](O)c1cccc(F)c1C [GSK716]
[1]
  EC50: > 100 µM
[2]; Agonist
  Mean (PXC50): <4
[2]; Antagonist
  Mean (PXC50): <4
[2]; Pos Mod
  Mean (PXC50): <4
[3]
  sensitivity to tunicamycin (cell viability): restored sensitivity of Z α1‐antitrypsin expressing cells to that of the wild‐type control cells
[4]
  IC50: > 100 µM
[5]
  formation of soluble and insoluble polymers: significantly reduced
[6]
  IC50: > 100 µM
[7]
  inhibitory activity of α1‐antichymotrypsin towards its cognate protease: did not affect
